# Laboratory results reported in patent US20220313670A1, “Methods Of Treating Fabry Disease In Patients Having Renal Impairment” (Amicus Therapeutics, Inc., priority 2019, published 2022).
# Assays:
# [1] = Earlier single and multiple ascending dose plasma and urine pharmacokinetic studies in healthy volunteers and Fabry patients; conditions: human, in vivo
# [2] = eGFR (MDRD), IDMS traceable, in Fabry patients on migalastat; type: in vivo, human; set-up: eGFR(MDRD), IDMS Traceable: unit not given here
# Procedure: An estimated GFR (eGFR) is calculated from serum creatinine using an isotope dilution mass spectrometry (IDMS) traceable equation. Two of the most commonly used equations for estimating glomerular filtration rate (GFR) from serum creatinine are the Chronic Kidney Disease Epidemiology Collaboration (CKD-EPI) equation and the Modification of Diet in Renal Disease (MDRD) Study equation. Both the MDRD Study and CKD-EPI equations include variables for age, gender, and race, which may allow providers to observe that CKD is present despite a serum creatinine concentration that appears to fall within or just above the normal reference interval. The following is the IDMS-traceable MDRD Study equation (for creatinine methods calibrated to an IDMS reference method): […]
# Fabry disease = assay: Phase 3 studies (FACETS, ATTRACT) of migalastat 150 mg every other day in Fabry patients; type: in vivo, human
# Description: One or more of the dosing regimens described herein are particularly suitable for Fabry patients who have some degree of renal impairment. […]00925301) was a 24-month trial, including a 6-month double-blind, placebo-controlled period, in 67 enzyme replacement therapy (ERT)-naive patients. ATTRACT (012, NCT01218659) was an active-controlled, 18-month trial in 57 ERT-experienced patients with a 12-month open-label extension (OLE). […] Accordingly, both studies included Fabry patients with normal renal function as well as patients with mild and moderate renal impairment, but neither study included patients with severe renal impairment. […] With a slowing in the ability to clear the drug from the body there can be an increasing exposure to the patient to the drug. Thus, in some embodiments a dose adjustment protocol is provided to inform physicians of the best dose taking into consideration the current clearance profile from the body. Dose adjustment is particularly difficult with a chaperone because it is an inhibitor, and a delicate balance must be reached such that the chaperone is present in amounts great enough to be therapeutic, but also not so great that the chaperone inhibits enzyme function (which would exacerbate the disease).
# cardiac repolarization = conditions: 150 mg and 1250 mg single doses; cited from earlier work
compound,measurement,setting,value
"OC[C@H]1NC[C@H](O)[C@@H](O)[C@H]1O [migalastat, (2R,3S,4R,55)-2-(hydroxymethyl) piperdine-3,4,5-triol]",route of excretion,[1],primarily excreted unchanged in urine
same,"eGFR(MDRD), IDMS Traceable","[2]; Fabry patient P1, 18 Month Visit",42
same,"eGFR(MDRD), IDMS Traceable","[2]; Fabry patient P1, 24 Month Visit",37
same,"eGFR(MDRD), IDMS Traceable","[2]; Fabry patient P1, 34-Month Visit",32
same,eGFR,"[2]; Fabry patient P3, Aug ′15",32 mL/min/1.73 m^2
same,eGFR,"[2]; Fabry patient P3, Aug ′17",19 mL/min/1.73 m^2
same,"eGFR(MDRD), IDMS Traceable","[2]; Fabry patient P3, August 2014, QOD",37
same,"eGFR(MDRD), IDMS Traceable","[2]; Fabry patient P3, August 2017, Q4D",19
same,"eGFR(MDRD), IDMS Traceable","[2]; Fabry patient P3, February 2014, QOD",42
same,"eGFR(MDRD), IDMS Traceable","[2]; Fabry patient P3, February 2018, Q7D",13
same,"eGFR(MDRD), IDMS Traceable","[2]; Fabry patient P3, January 2018, Q7D",13
same,"eGFR(MDRD), IDMS Traceable","[2]; Fabry patient P3, June 2015, QOD",32
same,eGFR,"[2]; Fabry patient P3, Mar ′11",59 mL/min/1.73 m^2
same,"eGFR(MDRD), IDMS Traceable","[2]; Fabry patient P3, March 2011, QOD",59
same,"eGFR(MDRD), IDMS Traceable","[2]; Fabry patient P3, March 2016, QOD",28
same,"eGFR(MDRD), IDMS Traceable","[2]; Fabry patient P3, May 2017, Q4D",21
same,eGFR,"[2]; Fabry patient P3, May ′17",21 mL/min/1.73 m^2
same,eGFR,"[2]; Fabry patient P3, Nov ′17",15 mL/min/1.73 m^2
same,"eGFR(MDRD), IDMS Traceable","[2]; Fabry patient P3, November 2017, Q4D",15
same,"eGFR(MDRD), IDMS Traceable","[2]; Fabry patient P3, September 2010, QOD",54
same,"eGFR(MDRD), IDMS Traceable","[2]; Fabry patient P3, September 2015, QOD",33
same,disease progression as shown by surrogate markers,Fabry disease,slowed the progression of the disease
same,effect on cardiac repolarization,cardiac repolarization,negative
